Counter-ions that a name gives are not always drawn.

The test deals with T1, acyl-CoA: cholesterol acyltransferase (ACAT) (Mus musculus, UniProt Q61263).
T1 construct: endogenous in cells; host or cells: J774.A1 murine macrophage-like cells
T1 sequence (Q61263 1-540): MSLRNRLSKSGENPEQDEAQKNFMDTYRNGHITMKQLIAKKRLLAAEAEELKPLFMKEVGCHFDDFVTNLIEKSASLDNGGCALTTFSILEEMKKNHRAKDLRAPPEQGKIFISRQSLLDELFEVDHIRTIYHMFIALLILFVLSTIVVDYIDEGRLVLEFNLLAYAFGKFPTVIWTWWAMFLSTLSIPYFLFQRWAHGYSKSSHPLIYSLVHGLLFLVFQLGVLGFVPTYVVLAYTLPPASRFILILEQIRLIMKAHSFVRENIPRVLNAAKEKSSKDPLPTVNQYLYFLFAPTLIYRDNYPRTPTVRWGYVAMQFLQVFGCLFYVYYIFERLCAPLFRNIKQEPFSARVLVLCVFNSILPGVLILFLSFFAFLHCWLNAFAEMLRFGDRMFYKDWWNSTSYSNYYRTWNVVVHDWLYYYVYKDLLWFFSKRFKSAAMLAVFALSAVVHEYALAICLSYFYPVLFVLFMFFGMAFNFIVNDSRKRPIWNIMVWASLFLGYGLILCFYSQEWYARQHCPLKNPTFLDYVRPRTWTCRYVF
Kind of test: Assay of the inhibition of cholesterol esterification in mammalian cells (J774.A1 macrophages, 14C-oleic acid incorporation into cholesteryl ester, ac-LDL loaded). Type of test: cell-based. The following applies: murine macrophage-like cell line J774.A1, ac-LDL loaded, 14C-oleic acid pulse; read-out: Cholesterol Esterification IC50 (concentration at which ACAT activity is inhibited by 50%). The procedure:
The esterification of cholesterol was determined in the murine macrophage-like cell line J774.A1. Cells were seeded in 35 mm wells at a density of 300,000 cells per well in 2 mls of Dulbecco's Eagle Medium (DMEM) supplemented with 10% fetal bovine serum (FBS). Cells were incubated at 37° C. in an atmosphere of 5% CO2 and 93% humidity. After 24 hours the media was changed to 0.68 mls 10% FBS-DMEM containing 34 μg of acetylated human low density lipoprotein (ac-LDL) to increase the intracellular concentration of cholesterol and promote esterification. At 41 hours, various inhibitors were added to the cells in DMSO (10 μl/ml maximum). At 43 hours, the cells were pulsed with 0.1 mM ^14 C-oleic acid (10,000 dpm/nmol) complexed with BSA (bovine serum albumin) to follow cholesterol ester formation. The experiment was terminated at 45 hours by washing the monolayers 3 time with 3 ml of Tris-buffered saline at 4° C. The lipids were extracted by incubating the monolayers with 1.5 ml of hexane: isopropanol (3:2, v/v) for 30 min. under gentle agitation. During this period, 10,000 dpm ^3 H-cholesteryl linoleate and 10 μg of cholesteryl oleate were added as an internal standard and carrier respectively. The organic solvent was removed and the cells were washed with an additional 1.0 ml of hexane: isopropanol which was combined with the original extract. The cells were allowed to dry overnight, digested with 1.5 ml of 0.2N sodium hydroxide for 1 hour and an aliquot of the solubilized protein used for protein determination using the Lowry method. The organic extract was taken to dryness, the residue resuspended in 100 μl of chloroform and the lipids separated on silica gel impregnated glass fiber plates using a hexane: diethylether: acetic acid (170:30:1, v/v/v) solvent system. Individual lipids were visualized with iodine and the cholesteryl ester spot cut out and transferred to scintillation vials to determine the amount of radioactivity. The conversion of oleic acid to cholesteryl ester in the control averaged […]/hour/mg protein and was increased upon the addition of ac-LDL to about […]/hour/mg protein. The inhibition of esterification by the compounds is shown in Table 2; the data are expressed as the concentration at which ACAT activity is inhibited by 50% (IC50).

For the compound `COC(=O)[C@H](CCCCNC(=O)OCc1ccccc1)NC(=O)CCCSc1nc(-c2ccc(N(C)C)cc2)c(-c2ccc(N(C)C)cc2)[nH]1` [Example 8, N2-[4-[4,5-bis[4-(dimethylamino)phenyl] -1H-imidazol-2-ylthio]-1-oxobutyl]-N6-[(phenylmethoxy)carbonyl]-L-lysine, methylester], the IC50 stood at 0.0049 µM.
With `COc1ccc(-c2nc(SCCCC(=O)N[C@@H](CCCCNC(=O)OCc3ccccc3)C(=O)NC(C)C)[nH]c2-c2ccc(OC)cc2)cc1` [Example 7, phenylmethyl, (S)-[5-[[4-[4,5-bis(4-methoxyphenyl)-1H-imidazol-2-ylthio]-1-oxobutyl]amino]-6-[(1-methylethyl)amino]-6-oxohexyl]carbamate] the figure was 1.1 µM; with `COC(=O)[C@H](CCCCNC(=O)OCc1ccccc1)NC(=O)CCCSc1nc(-c2ccc(OC)cc2)c(-c2ccc(OC)cc2)[nH]1` [Example 1, N2-[4-[4,5-bis(4-methoxyphenyl)-1H-imidazol-2-ylthio]-1-oxobutyl]-N6-[(phenylmethoxy)carbonyl]-L-lysine, methyl ester], 0.037 µM; with `COC(=O)[C@H](CCCCN)NC(=O)CCCSc1nc(-c2ccc(OC)cc2)c(-c2ccc(OC)cc2)[nH]1` [Example 2, N2-[4-[4,5-bis(4-methoxyphenyl)-1H-imidazol-2-ylthio]-1-oxobutyl]-L-lysine, methyl ester hydrobromide], 100 µM.
Next, `CCCCCC(=CCCCCSc1nc(-c2ccccc2)c(-c2ccccc2)[nH]1)C(=O)O` [Example 11, 7-(4,5-diphenyl-1H-imidazol-2-ylthio)-2-pentyl-2-heptenoic acid]: 13.4 µM; `COC(=O)[C@H](CCCCNC(C)=O)NC(=O)CCCSc1nc(-c2ccc(OC)cc2)c(-c2ccc(OC)cc2)n1C(C)=O` [Example 5, N6-acetyl-N2-[4-[1-acetyl-4,5-bis(4-methoxyphenyl)-1H-imidazol-2-ylthio]-1-oxobutyl]-L-lysine, methyl ester]: 7.15 µM.
For the compound `COC(=O)[C@H](CCCCNC(=O)C12CC3CC(CC(C3)C1)C2)NC(=O)CCCSc1nc(-c2ccc(OC)cc2)c(-c2ccc(OC)cc2)[nH]1` [Example 3, N6-(1-adamantylcarbonyl)-N2-[4-[4,5-bis(4-methoxyphenyl)-1H-imidazol-2-ylthio]-1-oxobutyl]-L-lysine, methyl ester], the IC50 came to 0.386 µM.
As for `COC(=O)[C@H](CCCCNC(C)=O)NC(=O)CCCSc1nc(-c2ccc(OC)cc2)c(-c2ccc(OC)cc2)[nH]1` [Example 6, N6-acetyl-N2-[4-[4,5-bis(4-methoxyphenyl)-1H-imidazol-2-ylthio]-1-oxobutyl]-L-lysine, methyl ester], the IC50 came out at 10.3 µM.
Turning to `CCCCCC(=CCCCCSc1nc(-c2ccccc2)c(-c2ccccc2)[nH]1)C(=O)OCC` [Example 10, ethyl, 7-(4,5-diphenyl-1H-imidazol-2-ylthio)-2-pentyl-2-heptenoate], the IC50 came out at 4.62 µM.
Turning to `COC(=O)[C@H](CCCCNC(=O)NCc1ccccc1)NC(=O)CCCSc1nc(-c2ccc(OC)cc2)c(-c2ccc(OC)cc2)[nH]1` [Example 4, N2-[4-[4,5-bis(4-methoxyphenyl)-1H-imidazol-2-ylthio]-1-oxobutyl]-N6-[(phenylmethyl)-aminocarbonyl]-L-lysine, methyl ester], the IC50 was determined as 0.601 µM.
As for `CCCC[C@H](NC(=O)CCCSc1nc(-c2ccc(OC)cc2)c(-c2ccc(OC)cc2)[nH]1)C(=O)OC` [Example 9, N-[4-[4,5-bis(4-methoxyphenyl)-1H-imidazol-2-ylthio]-1-oxobutyl]-norleucine, methyl ester], the IC50 turned out to be 0.65 µM.

The record behind these values is US5179117A, “Antihypercholesterolemic 2-substituted imidazoles” (Du Pont Merck Pharmaceutical Company, priority 1991, dated 1993).
